# Test results taken from patent US11400054B2, “Method for treating an autoimmune neurological disease and/or neurodegenerative disease and pharmaceutical formulations for a liquid dosage form and a controlled release dosage form” (INDUSTRIAL TECHNOLOGY RESEARCH INSTITUTE, priority 2017, dated 2022).
# Test system: EAE induced mice
# Assay: Therapeutic administration experiment in EAE induced mice, EAE score
# Type: in vivo, C57BL/6 mice
# Conditions: 100 mg/kg one time a day; 15, 50, 100 mg/kg BID; 14 days after onset; vs vehicle (FIGS. 8A, 8B)
row,Structure (SMILES),EAE score (symptoms of EAE)
1,"CC1=CCC(C(C)(C)O)CC1O (stereo not drawn) [SK0, (+)(−) trans-Sobrerol, reference compound]",significantly alleviating symptoms of EAE

# Same assay, conditions: 30, 100 mg/kg one time a day; 50, 100 mg/kg BID; 10-100 mg/kg TID; 14 days after onset; vs vehicle (FIGS. 5A-5C)
row,Structure (SMILES),EAE score (symptoms of EAE)
1,"CC1=CC[C@@H](C(C)(C)O)C[C@@H]1O [SK2, (−) trans-sobrerol]",significantly alleviating symptoms of EAE

# Test system: not listed separately
# Assay: Cell viability of BV-2 cells (MTT)
# Type: cell-based
# Conditions: mouse, LPS 100 ng/mL
# Method: (§1) BV-2 cells (8×10^3 cells/mL) were seeded in a 96-well plate cultured under 37° C., 5% CO2 overnight. The cells were divided into a naïve group (without any treatment), a control group (only treated with LPS) and experimental groups (treated with LPS and a testing compound).
# (§2) The supernatant in the well was removed. After that, different concentrations of a testing compound was added to the cells to react with the cells for 1 hour (culture medium was added to the cells for a control group), and then LPS (100 ng/mL) was added to the cell.
# Moreover, 50 μl of culturing medium containing MTT (0.5 mg/mL) was added to the cell part in the plate and cultured under 37° C. and 5% CO2 for 90 minutes, and then 150 μL DMSO was added to the plate and the plate was shaken for 5-10 minutes. Finally, OD570 was read by a continuous wavelength microplate analyzer, and cell viability was calculated using the following formula: Cell viability (%)=(OD value of the experimental group/OD value of the control group)×100.
# (§3) CC50 value for cell viability of a testing compound and IC50 value for IL-6 expression of a testing compound were calculated based on cell viabilities at different concentrations of the testing compound and IL-6 expression amounts of the cells at different concentrations of the testing compound, respectively.
row,Structure (SMILES),CC50 at 24 h [µM]
1,"CC1=CC[C@@H](C(C)(C)O)C[C@@H]1O [SK2, (−) trans-sobrerol]",> 200
2,CC1=CC[C@@H](C(C)(C)O)C[C@@H]1OC(=O)CCc1ccccc1 [TMUS-0124-4c],> 100
3,CC1=CC[C@@H](C(C)(C)O)C[C@@H]1OC(=O)c1ccc([N+](=O)[O-])cc1 [TMUS-0124-4d],> 100
4,COc1ccc(C(=O)O[C@H]2C[C@H](C(C)(C)O)CC=C2C)cc1 [TMUS-0124-4e],> 100
5,CCCCCC(=O)O[C@H]1C[C@H](C(C)(C)O)CC=C1C [TMUS-0124-4f],> 100
6,CC1CCC(C(C)(C)O)CC1=O (stereo not shown) [TMUS-0503-H2],> 100
7,C[C@H]1CC[C@H](C(C)(C)O)C[C@H]1O [TMUS-0503-H3],> 100
8,C[C@@H]1CC[C@H](C(C)(C)O)C[C@H]1O [TMUS-0503-H4],> 100
9,CC1=CC[C@@H](C(C)(C)O)C[C@@H]1OCc1ccccc1 [TMUS-0503-b1],> 100
10,CC1=CCC2CC1OC2(C)C (stereo not shown) [TMUS-0503-c1],> 100
11,CC1(C)OC2CC1CC1OC21C (stereo not shown) [TMUS-0503-c2],> 100
12,CO[C@H]1C[C@H](C(C)(C)O)CC=C1C [TMUS-0503-m1],> 100
13,CC1=CCC(C(C)(C)O)CC1=O (stereo not shown) [TMUS-0503-o1],> 100

# Test system: LPS-induced IL-6 expression in BV-2 cells
# Assay: LPS-induced IL-6 expression in BV-2 cells (IL-6 ELISA)
# Type: cell-based
# Conditions: Mus musculus, compound 1 hour then LPS 100 ng/mL, 24 hours
# Method: as §1, §2
# After reacting for 24 hours, the supernatant in the plate was taken and IL-6 expressing amount was detected by Mouse IL-6 ELISA Ready-SET-Go (Invitrogen; Cat. No. 88-7064-88) according to the manufacturer's recommended procedure.
# as §3
row,Structure (SMILES),IC50 [µM]
1,"CC1=CC[C@@H](C(C)(C)O)C[C@@H]1O [SK2, (−) trans-sobrerol]",183 ± 21.8
2,CC1=CC[C@@H](C(C)(C)O)C[C@@H]1OC(=O)CCc1ccccc1 [TMUS-0124-4c],38.2
3,CC1=CC[C@@H](C(C)(C)O)C[C@@H]1OC(=O)c1ccc([N+](=O)[O-])cc1 [TMUS-0124-4d],48.1
4,COc1ccc(C(=O)O[C@H]2C[C@H](C(C)(C)O)CC=C2C)cc1 [TMUS-0124-4e],50.8
5,CCCCCC(=O)O[C@H]1C[C@H](C(C)(C)O)CC=C1C [TMUS-0124-4f],38
6,CC1CCC(C(C)(C)O)CC1=O (stereo not shown) [TMUS-0503-H2],< 10
7,C[C@H]1CC[C@H](C(C)(C)O)C[C@H]1O [TMUS-0503-H3],30 to 100
8,C[C@@H]1CC[C@H](C(C)(C)O)C[C@H]1O [TMUS-0503-H4],30 to 100
9,CC1=CC[C@@H](C(C)(C)O)C[C@@H]1OCc1ccccc1 [TMUS-0503-b1],< 10
10,CC1=CCC2CC1OC2(C)C (stereo not shown) [TMUS-0503-c1],30 to 100
11,CC1(C)OC2CC1CC1OC21C (stereo not shown) [TMUS-0503-c2],30 to 100
12,CO[C@H]1C[C@H](C(C)(C)O)CC=C1C [TMUS-0503-m1],< 10
13,CC1=CCC(C(C)(C)O)CC1=O (stereo not shown) [TMUS-0503-o1],< 10

# Test system: EAE induced mice
# Assay: Prophylaxis administration experiment in EAE induced mice, EAE score
# Type: in vivo, C57BL/6 mice
# Conditions: 100 mg/kg one time a day from Day 7 after induction, 14 days; vs vehicle (FIG. 10)
row,Structure (SMILES),EAE score (symptoms of EAE)
1,"CC1=CC[C@@H](C(C)(C)O)C[C@@H]1O [SK2, (−) trans-sobrerol]",significantly alleviating symptoms of EAE

# Test system: spinal cords of the EAE induced mice
# Assay: Histology of spinal cord lesions in EAE induced mice (H&E, Luxol fast blue)
# Type: in vivo, C57BL/6 mice
# Conditions: 100 mg/kg three times a day, day 15 after onset; vs vehicle (FIG. 7B)
# Method: The mice were euthanized at day 15 post to onset of EAE. Spinal cord was removed and fixed in 10% phosphate-buffered formaldehyde. Paraffin-embedded 3 μm-thick cross sections of spinal cord were stained with hematoxylin and eosin in order to confirm tissue lesion. Another slides were stained with Luxol fast blue for examination of demyelination. Lesions were evaluated based on demyelination, inflammation, axonal swelling and gliosis which are scored based on the criteria shown in Table 2: […]
row,Structure (SMILES),axonal swelling in spinal cords
1,"CC1=CC[C@@H](C(C)(C)O)C[C@@H]1O [SK2, (−) trans-sobrerol]",effectively alleviating

# Same assay, conditions: 100 mg/kg three times a day, day 15 after onset; vs vehicle (FIG. 7C)
row,Structure (SMILES),inflammation in spinal cords
1,"CC1=CC[C@@H](C(C)(C)O)C[C@@H]1O [SK2, (−) trans-sobrerol]",effectively alleviating

# Same assay, conditions: 100 mg/kg three times a day, day 15 after onset; vs vehicle (FIG. 7D)
row,Structure (SMILES),gliosis in spinal cords
1,"CC1=CC[C@@H](C(C)(C)O)C[C@@H]1O [SK2, (−) trans-sobrerol]",effectively alleviating

# Same assay, conditions: 100 mg/kg three times a day, day 15 after onset; vs vehicle (FIGS. 6, 7A)
row,Structure (SMILES),demyelination in spinal cords
1,"CC1=CC[C@@H](C(C)(C)O)C[C@@H]1O [SK2, (−) trans-sobrerol]",effectively alleviating

# Test system: MOG induced IFN-γ secretion in splenocyte
# Assay: MOG induced IFN-γ secretion in splenocyte isolated from mice of EAE model (ELISA)
# Type: cell-based, C57BL/6 mice
# Conditions: Mus musculus, concentration 100 μM, 20 μg/ml MOG peptide, 48 hours
# Method: (§4) EAE was induced in C57BL/6 mice. The mice were immunized on Day 0 by subcutaneous injection with 200 μg of myelin oligodendrocyte glycoprotein (MOG) in […] containing 400 μg of heat-killed Mycobaterium tuberculosis H37Ra. Pertussis toxin (500 ng) was intraperitoneally injected on Day 0 and Day 2 after the mice were immunized with the emulsion. The mice were sacrifice on Day 30 post-immunization. Spleens of the mice were harvest and then splenocytes were isolated and cultured in presence or absence of the 20 μg/ml MOG peptide in 10% FBS RPMI1640 medium. Testing compound was added to the culture and maintained at 37° C. 5% CO2 for 48 hours. The concentrations of IFN-γ and IL-2 in the supernatant of the culture were determined by ELISA according to the manufacturer's instructions.
row,Structure (SMILES),inhibition at 100 µM [%]
1,COc1ccc(C(=O)O[C@H]2C[C@H](C(C)(C)O)CC=C2C)cc1 [TMUS-0124-4e],86
2,CC1CCC(C(C)(C)O)CC1=O (stereo not shown) [TMUS-0503-H2],33
3,CC1(C)OC2CC1CC1OC21C (stereo not shown) [TMUS-0503-c2],31
4,CO[C@H]1C[C@H](C(C)(C)O)CC=C1C [TMUS-0503-m1],17

# Same assay, conditions: Mus musculus, concentration 200 μM, 20 μg/ml MOG peptide, 48 hours
row,Structure (SMILES),inhibition at 200 µM [%]
1,"CC1=CC[C@H](C(C)(C)O)C[C@H]1O [SK1, (+) trans-Sobrerol]",24
2,"CC1=CC[C@@H](C(C)(C)O)C[C@@H]1O [SK2, (−) trans-sobrerol]",34
3,CC1=CC[C@@H](C(C)(C)O)C[C@@H]1OC(=O)CCc1ccccc1 [TMUS-0124-4c],78
4,CC1=CC[C@@H](C(C)(C)O)C[C@@H]1OC(=O)c1ccc([N+](=O)[O-])cc1 [TMUS-0124-4d],79
5,CCCCCC(=O)O[C@H]1C[C@H](C(C)(C)O)CC=C1C [TMUS-0124-4f],59
6,CC1=CCC(C(C)(C)O)CC1=O (stereo not shown) [TMUS-0503-o1],56

# Same assay, conditions: Mus musculus, concentration 300 μM, 20 μg/ml MOG peptide, 48 hours
row,Structure (SMILES),inhibition at 300 µM [%]
1,"CC1=CCC(C(C)(C)O)CC1O (stereo not drawn) [SK0, (+)(−) trans-Sobrerol, reference compound]",10
2,C[C@@H]1CC[C@H](C(C)(C)O)C[C@H]1O [TMUS-0503-H4],42
3,CC1=CC[C@@H](C(C)(C)O)C[C@@H]1OCc1ccccc1 [TMUS-0503-b1],20
4,CC1=CCC2CC1OC2(C)C (stereo not shown) [TMUS-0503-c1],23

# Test system: MOG induced IL-2 secretion in splenocyte
# Assay: MOG induced IL-2 secretion in splenocyte isolated from mice of EAE model (ELISA)
# Type: cell-based, C57BL/6 mice
# Conditions: Mus musculus, concentration 100 μM, 20 μg/ml MOG peptide, 48 hours
# Method: as §4
row,Structure (SMILES),inhibition at 100 µM [%]
1,COc1ccc(C(=O)O[C@H]2C[C@H](C(C)(C)O)CC=C2C)cc1 [TMUS-0124-4e],59
2,CC1CCC(C(C)(C)O)CC1=O (stereo not shown) [TMUS-0503-H2],16
3,CC1(C)OC2CC1CC1OC21C (stereo not shown) [TMUS-0503-c2],13
4,CO[C@H]1C[C@H](C(C)(C)O)CC=C1C [TMUS-0503-m1],21

# Same assay, conditions: Mus musculus, concentration 200 μM, 20 μg/ml MOG peptide, 48 hours
row,Structure (SMILES),inhibition at 200 µM [%]
1,"CC1=CC[C@H](C(C)(C)O)C[C@H]1O [SK1, (+) trans-Sobrerol]",0
2,"CC1=CC[C@@H](C(C)(C)O)C[C@@H]1O [SK2, (−) trans-sobrerol]",0
3,CC1=CC[C@@H](C(C)(C)O)C[C@@H]1OC(=O)CCc1ccccc1 [TMUS-0124-4c],23
4,CC1=CC[C@@H](C(C)(C)O)C[C@@H]1OC(=O)c1ccc([N+](=O)[O-])cc1 [TMUS-0124-4d],22
5,CCCCCC(=O)O[C@H]1C[C@H](C(C)(C)O)CC=C1C [TMUS-0124-4f],8
6,CC1=CCC(C(C)(C)O)CC1=O (stereo not shown) [TMUS-0503-o1],40

# Same assay, conditions: Mus musculus, concentration 300 μM, 20 μg/ml MOG peptide, 48 hours
row,Structure (SMILES),inhibition at 300 µM [%]
1,"CC1=CCC(C(C)(C)O)CC1O (stereo not drawn) [SK0, (+)(−) trans-Sobrerol, reference compound]",16
2,C[C@@H]1CC[C@H](C(C)(C)O)C[C@H]1O [TMUS-0503-H4],19
3,CC1=CC[C@@H](C(C)(C)O)C[C@@H]1OCc1ccccc1 [TMUS-0503-b1],15
4,CC1=CCC2CC1OC2(C)C (stereo not shown) [TMUS-0503-c1],22
